Test results reported in ChEMBL document CHEMBL1149923, “Synthesis and activity of enantiopure (S) (m-nitrobenzoyl) alanine, potent kynurenine-3-hydroxylase inhibitor” (Bioorg Med Chem Lett, 1995).

Experiments:
[1] = target: T1, Kynureninase (Rattus norvegicus, UniProt P70712); test: Tested for inhibitory activity against kynureninase from rat liver
T1 sequence (P70712 whole entry): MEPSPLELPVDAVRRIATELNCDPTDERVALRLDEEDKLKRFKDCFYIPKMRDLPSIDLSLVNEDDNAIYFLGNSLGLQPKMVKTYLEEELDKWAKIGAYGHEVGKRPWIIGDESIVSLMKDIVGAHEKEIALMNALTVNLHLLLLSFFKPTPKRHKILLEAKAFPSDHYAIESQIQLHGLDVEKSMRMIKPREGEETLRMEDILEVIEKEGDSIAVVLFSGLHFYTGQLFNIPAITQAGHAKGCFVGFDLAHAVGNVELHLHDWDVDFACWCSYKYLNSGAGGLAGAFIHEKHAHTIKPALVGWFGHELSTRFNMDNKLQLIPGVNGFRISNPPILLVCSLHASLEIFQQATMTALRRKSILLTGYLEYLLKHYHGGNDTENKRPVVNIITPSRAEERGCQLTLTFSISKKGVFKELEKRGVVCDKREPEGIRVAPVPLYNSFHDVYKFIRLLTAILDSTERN

[2] = target: Kynurenine 3-monooxygenase (Rattus norvegicus, UniProt O88867); test: Tested for inhibitory activity against kynurenine 3-hydroxylase
Chain of Kynurenine 3-monooxygenase (O88867 whole entry): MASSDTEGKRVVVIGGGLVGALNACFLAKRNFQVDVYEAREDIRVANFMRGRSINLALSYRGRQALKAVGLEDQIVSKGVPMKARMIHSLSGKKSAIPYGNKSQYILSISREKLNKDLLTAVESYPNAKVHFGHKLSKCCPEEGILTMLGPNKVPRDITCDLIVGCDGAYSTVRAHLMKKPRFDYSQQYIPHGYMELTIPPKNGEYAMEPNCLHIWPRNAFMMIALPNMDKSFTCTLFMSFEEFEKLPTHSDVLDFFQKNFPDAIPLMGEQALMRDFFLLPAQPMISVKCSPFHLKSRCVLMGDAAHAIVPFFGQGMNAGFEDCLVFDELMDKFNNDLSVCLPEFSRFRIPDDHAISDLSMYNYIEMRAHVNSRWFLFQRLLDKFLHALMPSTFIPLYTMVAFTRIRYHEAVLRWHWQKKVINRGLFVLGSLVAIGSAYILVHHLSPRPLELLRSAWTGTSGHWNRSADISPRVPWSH

[3] = target: Kynurenine 3-monooxygenase (Rattus norvegicus) (UniProt O88867); details: 100 uM
Chain of Kynurenine 3-monooxygenase (Rattus norvegicus) (O88867 whole entry, looked up): as the sequence (O88867 whole entry) above
Description: Tested for inhibitory activity against kynurenine 3-hydroxylase at 100 uM concentration

IC50 [1] | IC50 [2] | inhibition [3] | Compound
60 µM | 0.5 µM |  | N[C@@H](CC(=O)c1cccc([N+](=O)[O-])c1)C(=O)O
100 µM |  | 60% | N[C@H](CC(=O)c1cccc([N+](=O)[O-])c1)C(=O)O
